# Experimental data: US20090312356A1, “NICOTINIC AGONISTS SELECTIVE FOR THE ALPHA7 RECEPTOR SUBTYPE, THE PROCESS FOR THE PREPARATION THEREOF AND PHARMACEUTICAL CO[…]” (priority 2006, published 2009)
# Experiments:
# human α7 (hα7) receptors = molecular target: T1, human α7 (hα7) receptors (Homo sapiens, UniProt P36544); experiment: whole cell patch-clamp electrophysiological recordings, hα7-expressing GH4C1 cells; type: cell-based; settings: 50 nM
# T1 construct: expressed in transfected cells
# T1 sequence (P36544 23-502): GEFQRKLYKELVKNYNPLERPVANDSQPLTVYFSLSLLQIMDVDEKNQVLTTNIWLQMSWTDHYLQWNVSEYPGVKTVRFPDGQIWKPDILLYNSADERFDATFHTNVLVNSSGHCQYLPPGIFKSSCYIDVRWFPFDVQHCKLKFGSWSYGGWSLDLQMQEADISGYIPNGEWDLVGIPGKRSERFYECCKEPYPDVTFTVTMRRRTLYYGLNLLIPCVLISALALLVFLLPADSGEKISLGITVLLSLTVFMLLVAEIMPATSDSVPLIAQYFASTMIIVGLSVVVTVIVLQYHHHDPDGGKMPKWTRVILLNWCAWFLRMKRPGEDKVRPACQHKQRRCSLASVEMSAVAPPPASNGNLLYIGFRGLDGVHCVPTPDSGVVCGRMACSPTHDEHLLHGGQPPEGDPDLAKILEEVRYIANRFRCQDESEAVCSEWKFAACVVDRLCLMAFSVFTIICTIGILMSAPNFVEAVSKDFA
# Experimental: α7 Subtype: The human α7 (hα7) receptors were stably expressed in transfected GH4C1 and grown in the presence of geneticin (G418 sulfate, 500 μg/mL) as previously described.^31
SMILES,effect on acetylcholine-induced hα7 current (human α7 (hα7) receptors),melting point
CCN1C[C@]2(COC(=O)c3ccccc3N3C(=O)C[C@H](C)C3=O)CC[C@H](OC)[C@@]34[C@@H]5C[C@H]6[C@H](OC)[C@@H]5[C@](O)(C[C@@H]6OC)[C@@](O)([C@@H](OC)[C@H]23)[C@@H]14 [methyllycaconitine],blocked,–
CN1OC2(CC1=O)CN1CCC2CC1 (racemic),–,182 to 183 °C
c1ccc(COC2=NOC3(C2)CN2CCC3CC2)cc1 (racemic),–,> 50 °C
BrC1=NN(c2ccccc2)C2(C1)CN1CCC2CC1 (racemic),–,203 to 207 °C
